Experimental data from patent publication US11180462B2, “Microbiocidal oxadiazole derivatives” (SYNGENTA PARTICIPATIONS AG, priority 2015, dated 2021).

Tests used:
[1] = tested on: Puccinia recondita f. Sp. Tritici; experiment: Fungicidal activity against Puccinia recondita f. sp. tritici / wheat / leaf disc preventative (brown rust); format: in vivo; settings: foliar, 200 ppm in the applied formulation, wheat leaf segments, preventative, compared to untreated control leaf disks, read-out: disease control
Outline: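 Compound application precedes infection: segments of wheat cv. Kanzler, sprayed at 200 ppm, are inoculated with a spore suspension after 1 day. Incubation is at 19° C. with 75% relative humidity and 12 h light/12 h darkness, and control versus untreated leaves is rated 7 to 9 days post-application.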

[2] = tested on: Glomerella lagenarium (Colletotrichum lagenarium); experiment: Fungicidal activity against Glomerella lagenarium (Colletotrichum lagenarium) liquid culture / cucumber / preventative (anthracnose); format: cell-based; settings: Colletotrichum orbiculare; 20 ppm in the applied formulation; liquid culture (PDB), growth inhibition measured photometrically after 3 to 4 days; compared to untreated control; read-out: disease control
Outline: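 Photometric read-out of fungal growth after 2–7 days, expressed as percent antifungal activity versus untreated check. Cryo-stored conidia in PDB; compound at 20 ppm; dark, 24 °C, 96% RH.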

Phakopsora Pachyrhizi = experiment: Fungicidal activity against Phakopsora pachyrhizi / soybean / leaf disc preventative (Asian soybean rust); format: in vivo; settings: foliar, 200 ppm in the applied formulation, soybean leaf disks, compared to untreated control leaf disks, read-out: disease control
Outline: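 Preventative soybean leaf-disc test: discs on water agar sprayed with diluted formulated compound, inoculated one day later with spores on the lower surface. Held 24–36 h dark at 20°C, 75% rh, then 12 h light/day; percent disease control versus untreated discs scored 12–14 days after application.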

[3] = tested on: Puccinia recondita f. Sp. Tritici; experiment: Fungicidal activity against Puccinia recondita f. sp. tritici / wheat / leaf disc curative (brown rust); format: in vivo; settings: foliar, 24 h, 200 ppm in the applied formulation, wheat leaf segments, curative (applied 1 day after inoculation), compared to untreated control leaf disks, read-out: disease control
Outline: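 Scoring is percent disease control relative to untreated segments, made 6 to 8 days after treatment. Wheat (cv. Kanzler) leaf segments received the formulated, water-diluted compound one day post-inoculation with spores, having been kept dark at 19° C and 75% RH, then incubated under 12 h light/12 h dark at the same temperature and humidity.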

## CCC(=O)N(Cc1ccc(-c2noc(C(F)(F)F)n2)cc1)C1COC1 [Compound 1.604, N—(Oxetan-3-yl)-N-[[4-[5-(Trifluoromethyl)-1,2,4-Oxadiazol-3-yl]Phenyl]Methyl]Propanamide]
other
  melting point: 88.8 to 93.5 °C
[1]
  pest or weed control at 200 ppm: ≥ 80%
[2]
  inhibition of growth at 20 ppm: ≥ 80%
Phakopsora Pachyrhizi
  pest or weed control at 200 ppm: ≥ 80%
[3]
  pest or weed control at 200 ppm: ≥ 80%

## CON(Cc1ccc(-c2noc(C(F)(F)F)n2)cc1)C(=O)CNC(=O)OC(C)(C)C [Compound 1.787, tert-butyl N-[2-(methoxy-[[4-[5-(trifluoromethyl)-1,2,4-oxadiazol-3-yl]phenyl]methyl]-amino]-2-oxo-ethyl]carbamate]
other
  melting point: 80 to 83.1 °C
[1]
  pest or weed control at 200 ppm: ≥ 80%
[2]
  inhibition of growth at 20 ppm: ≥ 80%
[3]
  pest or weed control at 200 ppm: ≥ 80%

## CON(Cc1ccc(-c2noc(C(F)(F)F)n2)cc1)C(N)=O [Compound 3.32, 1-methoxy-1-[[4-[5-(trifluoromethyl)-1,2,4-oxadiazol-3-yl]phenyl]methyl]urea]
other
  melting point: 112.2 to 114.7 °C
[1]
  pest or weed control at 200 ppm: ≥ 80%
[2]
  inhibition of growth at 20 ppm: ≥ 80%
Phakopsora Pachyrhizi
  pest or weed control at 200 ppm: ≥ 80%
[3]
  pest or weed control at 200 ppm: ≥ 80%

## CON(Cc1ccc(-c2noc(C(F)(F)F)n2)cc1)C(=O)C(C)NC(=O)OC(C)(C)C (stereo not shown) [Compound 1.791, tert-butyl N-[2-(methoxy-[[4-[5-(trifluoromethyl)-1,2,4-oxadiazol-3-yl]phenyl]methyl]-amino]-1-methyl-2-oxo-ethyl]carbamate]
other
  melting point: 108.8 to 111.9 °C
[1]
  pest or weed control at 200 ppm: ≥ 80%
[2]
  inhibition of growth at 20 ppm: ≥ 80%
[3]
  pest or weed control at 200 ppm: ≥ 80%

## CCC(=O)NCC(=O)N(Cc1ccc(-c2noc(C(F)(F)F)n2)cc1)OC [Compound 1.793, N-[2-[methoxy-[[4-[5-(trifluoromethyl)-1,2,4-oxadiazol-3-yl]phenyl]methyl]-amino]-2-oxo-ethyl]propanamide]
other
  melting point: 115.3 to 117.8 °C
[1]
  pest or weed control at 200 ppm: ≥ 80%
[2]
  inhibition of growth at 20 ppm: ≥ 80%
[3]
  pest or weed control at 200 ppm: ≥ 80%

## CNC(=O)CNC(=O)N(Cc1ccc(-c2noc(C(F)(F)F)n2)cc1)OC [Compound 3.50, 2-[[methoxy-[[4-[5-(trifluoromethyl)-1,2,4-oxadiazol-3-yl]phenyl]methyl]-carbamoyl]amino]-N-methyl-acetamide]
other
  melting point: 126 to 130 °C
[1]
  pest or weed control at 200 ppm: ≥ 80%
[3]
  pest or weed control at 200 ppm: ≥ 80%

## CON(C)C(=O)N(Cc1ccc(-c2noc(C(F)(F)F)n2)cc1)OC [Compound 3.3, 1,3-dimethoxy-1-methyl-3-[[4-[5-(trifluoromethyl)-1,2,4-oxadiazol-3-yl]phenyl]methyl]urea]
other
  melting point: 74 to 77 °C
[1]
  pest or weed control at 200 ppm: ≥ 80%
[2]
  inhibition of growth at 20 ppm: ≥ 80%
Phakopsora Pachyrhizi
  pest or weed control at 200 ppm: ≥ 80%
[3]
  pest or weed control at 200 ppm: ≥ 80%

## CCON(Cc1ccc(-c2noc(C(F)(F)F)n2)cc1)C(=O)OC [Compound 2.5, methyl N-ethoxy-N-[[4-[5-(trifluoromethyl)-1,2,4-oxadiazol-3-yl]phenyl]methyl]-carbamate]
other
  melting point: 50.6 to 53 °C
[2]
  inhibition of growth at 20 ppm: ≥ 80%
Phakopsora Pachyrhizi
  pest or weed control at 200 ppm: ≥ 80%
[3]
  pest or weed control at 200 ppm: ≥ 80%

## COCC(=O)N(O)Cc1ccc(-c2noc(C(F)(F)F)n2)cc1 [Compound 1.606, N-hydroxy-2-methoxy-N-[[4-[5-(trifluoromethyl)-1,2,4-oxadiazol-3-yl]phenyl]methyl]-acetamide]
other
  melting point: 144.4 to 147.8 °C
[1]
  pest or weed control at 200 ppm: ≥ 80%
[2]
  inhibition of growth at 20 ppm: ≥ 80%
Phakopsora Pachyrhizi
  pest or weed control at 200 ppm: ≥ 80%
[3]
  pest or weed control at 200 ppm: ≥ 80%

## CN(Cc1ccc(-c2noc(C(F)(F)F)n2)cc1)C(=O)NC1CC1 [Compound 3.56, 3-cyclopropyl-1-methyl-1-[[4-[5-(trifluoromethyl)-1,2,4-oxadiazol-3-yl]phenyl]methyl]urea]
other
  melting point: 113 to 121 °C
[1]
  pest or weed control at 200 ppm: ≥ 80%
[2]
  inhibition of growth at 20 ppm: ≥ 80%
Phakopsora Pachyrhizi
  pest or weed control at 200 ppm: ≥ 80%
[3]
  pest or weed control at 200 ppm: ≥ 80%

## CON(Cc1ccc(-c2noc(C(F)(F)F)n2)cc1)C(=O)CNC(C)=O [Compound 1.794, 2-acetamido-N-methoxy-N-[[4-[5-(trifluoromethyl)-1,2,4-oxadiazol-3-yl]phenyl]methyl]-acetamide]
other
  melting point: 132.8 to 134.9 °C
[1]
  pest or weed control at 200 ppm: ≥ 80%
[2]
  inhibition of growth at 20 ppm: ≥ 80%
[3]
  pest or weed control at 200 ppm: ≥ 80%

## CON(Cc1ccc(-c2noc(C(F)(F)F)n2)c(F)c1)C(=O)c1ccccc1Cl [Compound 1.581, 2-chloro-N-[[3-fluoro-4-[5-(trifluoromethyl)-1,2,4-oxadiazol-3-yl]phenyl]methyl]-N-methoxy-benzamide]
other
  melting point: 89 to 95 °C
[1]
  pest or weed control at 200 ppm: ≥ 80%
[2]
  inhibition of growth at 20 ppm: ≥ 80%
Phakopsora Pachyrhizi
  pest or weed control at 200 ppm: ≥ 80%

## CON(Cc1ccc(-c2noc(C(F)(F)F)n2)cc1)C(=O)NCC(F)(F)F [Compound 3.38, 1-methoxy-3-(2,2,2-trifluoroethyl)-1-[[4-[5-(trifluoromethyl)-1,2,4-oxadiazol-3-yl]phenyl]methyl]urea]
other
  melting point: 95 to 98 °C
[1]
  pest or weed control at 200 ppm: ≥ 80%
[2]
  inhibition of growth at 20 ppm: ≥ 80%
Phakopsora Pachyrhizi
  pest or weed control at 200 ppm: ≥ 80%
[3]
  pest or weed control at 200 ppm: ≥ 80%

## CON(Cc1ccc(-c2noc(C(F)(F)F)n2)cc1)C(=O)C(NC(=O)C1CC1)C(C)C (stereo not shown) [Compound 1.54, N-[1-(methoxy-[[4-[5-(trifluoromethyl)-1,2,4-oxadiazol-3-yl]phenyl]methyl]carbamoyl]-2-methyl-propyl]-cyclopropane-carboxamide]
other
  melting point: 104.4 to 109 °C
[1]
  pest or weed control at 200 ppm: ≥ 80%
[2]
  inhibition of growth at 20 ppm: ≥ 80%
Phakopsora Pachyrhizi
  pest or weed control at 200 ppm: ≥ 80%
[3]
  pest or weed control at 200 ppm: ≥ 80%

## O=C(C1CC1)N(Cc1ccc(-c2noc(C(F)(F)F)n2)cc1)C1COC1 [Compound 1.605, N-(oxetan-3-yl)-N-[[4-[5-(trifluoromethyl)-1,2,4-oxadiazol-3-yl]phenyl]methyl]-cyclopropane-carboxamide]
other
  melting point: 89.5 to 94 °C
[1]
  pest or weed control at 200 ppm: ≥ 80%
[2]
  inhibition of growth at 20 ppm: ≥ 80%
Phakopsora Pachyrhizi
  pest or weed control at 200 ppm: ≥ 80%
[3]
  pest or weed control at 200 ppm: ≥ 80%

## CON(Cc1ccc(-c2noc(C(F)(F)F)n2)cc1)C(=O)NC1(C)CC1 [Compound 3.46, 1-methoxy-3-(1-methylcyclopropyl)-1-[[4-[5-(trifluoromethyl)-1,2,4-oxadiazol-3-yl]phenyl]methyl]urea]
other
  melting point: 93 to 97 °C
[1]
  pest or weed control at 200 ppm: ≥ 80%
[2]
  inhibition of growth at 20 ppm: ≥ 80%
Phakopsora Pachyrhizi
  pest or weed control at 200 ppm: ≥ 80%
[3]
  pest or weed control at 200 ppm: ≥ 80%

## CON(Cc1ccc(-c2noc(C(F)(F)F)n2)cc1)C(=O)NCC1CC1(F)F (stereo not shown) [Compound 3.103, 3-[(2,2-difluorocyclopropyl)-methyl]-1-methoxy-1-[[4-[5-(trifluoromethyl)-1,2,4-oxadiazol-3-yl]phenyl]methyl]urea]
other
  melting point: 81 to 84 °C
[1]
  pest or weed control at 200 ppm: ≥ 80%
[2]
  inhibition of growth at 20 ppm: ≥ 80%
[3]
  pest or weed control at 200 ppm: ≥ 80%

## CON(Cc1ccc(-c2noc(C(F)(F)F)n2)cc1)C(=O)NCC1(O)CC1 [Compound 3.54, 3-[(1-hydroxycyclopropyl)-methyl]-1-methoxy-1-[[4-[5-(trifluoromethyl)-1,2,4-oxadiazol-3-yl]phenyl]methyl]urea]
other
  melting point: 107 to 110 °C
[1]
  pest or weed control at 200 ppm: ≥ 80%
[2]
  inhibition of growth at 20 ppm: ≥ 80%
[3]
  pest or weed control at 200 ppm: ≥ 80%

## CON(Cc1ccc(-c2noc(C(F)(F)F)n2)cc1)C(=O)CNC(=O)C1CC1 [Compound 1.790, N-[2-[methoxy-[[4-[5-(trifluoro-methyl)-1,2,4-oxadiazol-3-yl]phenyl]methyl]-amino]-2-oxo-ethyl]-cyclopropane-carboxamide]
other
  melting point: 135.9 to 138.5 °C
[1]
  pest or weed control at 200 ppm: ≥ 80%
[2]
  inhibition of growth at 20 ppm: ≥ 80%
[3]
  pest or weed control at 200 ppm: ≥ 80%

## CN(Cc1ccc(-c2noc(C(F)(F)F)n2)cc1)C(=O)CO [Compound 1.593, 2-hydroxy-N-methyl-N-[[4-[5-(trifluoromethyl)-1,2,4-oxadiazol-3-yl]phenyl]methyl]-acetamide]
other
  melting point: 54 to 60 °C
[1]
  pest or weed control at 200 ppm: ≥ 80%
[2]
  inhibition of growth at 20 ppm: ≥ 80%
[3]
  pest or weed control at 200 ppm: ≥ 80%

## CON(Cc1ccc(-c2noc(C(F)(F)F)n2)cc1)C(=O)/C=C/c1ccccc1 [Compound 1.5, (E)-N-methoxy-3-phenyl-N-[[4-[5-(trifluoromethyl)-1,2,4-oxadiazol-3-yl]phenyl]methyl]-prop-2-enamide]
other
  melting point: 94 to 99 °C
[2]
  inhibition of growth at 20 ppm: ≥ 80%
Phakopsora Pachyrhizi
  pest or weed control at 200 ppm: ≥ 80%

## CON(Cc1ccc(-c2noc(C(F)(F)F)n2)cc1)C(=O)C(C)N.Cl (stereo not shown) [Compound 1.792, [2-[methoxy-[[4-[5-(trifluoromethyl)-1,2,4-oxadiazol-3-yl]phenyl]methyl]-amino]-1-methyl-2-oxo-ethyl]ammonium; chloride]
other
  melting point: 200.7 to 203.2 °C
[1]
  pest or weed control at 200 ppm: ≥ 80%
[3]
  pest or weed control at 200 ppm: ≥ 80%
